Reference: patent publication US4912097A, “Novel 11 β-alkynylphenyl-10-nor-steroids” (Roussel Uclaf, priority 1986, dated 1990)
Read-outs that look alike come from different tables or passages of the source.

Legend:
[1] = system: thymocytes of surrenalectomised rats; test: Antiglucocorticoidal activity: incorporation of tritiated uridine in thymocytes treated with dexamethasone; type: cell-based, rat; conditions: for opposition to the dexamethasone-caused diminution of incorporation of tritiated uridine (in words) / inhibition at 1 µM / inhibition at 0.1 µM / inhibition at 0.01 µM: 5·10^-8 M dexamethasone; for inhibition at 1 µM / inhibition at 0.1 µM / inhibition at 0.01 µM: Rattus norvegicus, Thymocyte, read-out: % inhibition of the effect of Dexamethasone; for inhibition at 1 µM: product tested 10^-6 M; for inhibition at 0.1 µM: product tested 10^-7 M; for inhibition at 0.01 µM: product tested 10^-8 M
Procedure: The technique employed was derived from the method described by Daune et al in Molecular Pharmacology, Vol. 13, 948-955 (1977) "The relationship between glucocorticold structure and effects upon thymocytes", for the thymocytes of the mouse. The thymocytes of surrenalectomised rats were incubated at 37° C. for 3 hours in a nutrient medium containing 5·10^-8 M of dexamethasone, in the presence or absence of a product to be studied at different concentrations. One added tritiated uridine, and continued the incubation for one hour. The incubates were cooled and treated with a 5% solution of trichloroacetic acid. After filtration on Whatman GF/A paper, and washing three times with a 5% trichloroacetic acid solution, the radioactivity retained by the filter was determined.

gestation in the rat = test: Abortifacient activity in the rat; type: in vivo; conditions: 3 mg/kg orally on Day D 9 of gestation; sacrificed 72 hours after treatment
Procedure: Day D 1 of gestation was determined by the presence of spermatozoids in the vaginal smears and on Day D 9 of gestation, the product was administered orally in suspension in carboxymethyl cellulose containing 0.5% of Tween. The animals were sacrificed 72 hours after the treatment and the uterus was examined to determine the state of gestation.

[2] = target: T1, Gluoccocorticoid Receptor of the Rat Thymus (Rattus norvegicus, UniProt P06536); test: Relative bonding affinity (ARL), glucocorticoid receptor of the rat thymus; type: binding, rat (male Sprague Dawley EOPS); conditions: for relative bonding affinity (ARL), Glucocorticoid: displacement of tritiated dexamethasone
T1 construct: The thymuses were removed and homogenized at 0° C; from tissue; host or cells: thymus of adrenalectomised male Sprague Dawley rats; high-speed supernatant of the homogenate
T1 sequence (P06536 1-795): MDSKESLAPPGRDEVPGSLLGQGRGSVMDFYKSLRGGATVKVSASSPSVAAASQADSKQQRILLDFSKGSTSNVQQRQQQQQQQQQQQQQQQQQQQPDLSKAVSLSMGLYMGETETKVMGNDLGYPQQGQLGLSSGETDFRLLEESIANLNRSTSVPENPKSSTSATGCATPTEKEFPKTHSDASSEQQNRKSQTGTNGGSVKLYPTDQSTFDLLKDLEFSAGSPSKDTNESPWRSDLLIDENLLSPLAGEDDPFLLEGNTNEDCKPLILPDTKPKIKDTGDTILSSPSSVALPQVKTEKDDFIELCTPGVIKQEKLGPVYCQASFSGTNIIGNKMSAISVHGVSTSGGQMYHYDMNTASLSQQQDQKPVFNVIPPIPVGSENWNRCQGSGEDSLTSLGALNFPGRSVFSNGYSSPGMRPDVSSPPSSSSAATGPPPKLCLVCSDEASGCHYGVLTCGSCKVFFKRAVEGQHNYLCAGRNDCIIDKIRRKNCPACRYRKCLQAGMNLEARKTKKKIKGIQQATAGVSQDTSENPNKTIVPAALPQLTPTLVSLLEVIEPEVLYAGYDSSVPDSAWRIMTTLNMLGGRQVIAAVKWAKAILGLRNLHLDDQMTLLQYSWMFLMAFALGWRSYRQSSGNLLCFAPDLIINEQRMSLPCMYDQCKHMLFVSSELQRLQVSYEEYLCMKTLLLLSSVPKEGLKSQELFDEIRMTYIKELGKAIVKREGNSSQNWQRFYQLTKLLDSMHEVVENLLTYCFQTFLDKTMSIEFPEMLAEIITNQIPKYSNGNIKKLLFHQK
Procedure: (§1) Study of the activity upon the hormonal receptors.
Male Sprague Dawley EOPS rats of 160 to 200 g were surrenalectomised and 4 to 8 days after this ablation, the animals were sacrificed. The thymuses were removed and homogenized at 0° C. in a 10 mM Tris, 0.25M saccharose, 2 mM dithiothreitol, HCl pH 7.4 buffer with the aid of a Potter polytetrafluoroethylene dish (1 g of tissue per 10 ml of TS). The homogenate was then ultracentrifuged (105,000×90 mn) at 0° C. Aliquots of the supernatent fluid thus obtained were incubated at 0° for a period (t) with a constant concentration (T) of tritiated dexamethasone in the presence of increasing concentrations (0-2500. 10^-9 M) either of cold dexamethasone, or of cold product to be tested. The concentration of tritiated dexamethasone bound (B) was then measured in each incubate by the technique of adsorption on dextran charcoal.
(§2) The calculation of the relative bonding affinity (ARL) was identical for all the receptors.
(§3) The 2 curves were plotted as follows: the percentage of the tritiated hormone bound B/T as a function of the logarithm of the concentration of the reference hormone cold and B/T as a function of the logarithm of the concentration of the product tested cold.
(§4) The straight line of the equation I50 =(B/T max+B/T min)/2. B/T max=percentage of the tritiated hormone bound for one incubation of this tritiated hormone at the concentration (T) was determined. B/T min=percentage of the tritiated hormone bound for one incubation of this tritiated hormone at the concentration (T) in the presence of a great excess of the cold hormone (2500·10^-9 M).
(§5) The intersections of the straight line I50 and of the curves make it possible to estimate the concentrations of the cold reference hormone (CH) and of the cold product tested (CX) which inhibits 50% of the bonding of the tritiated hormone on the receptor. The relative affinity of the bonding (ARL) of the product tested was determined by the equation [formula]

[3] = target: T2, Progestogen Receptor of the Rabbit Uterus (Oryctolagus cuniculus, UniProt P06186); test: Relative bonding affinity (ARL), progestogen receptor of the rabbit uterus; type: binding; conditions: for relative bonding affinity (ARL), Progestogen: displacement of tritiated R
T2 construct: The uteruses were removed, weighed and homogenized at 0° C; from tissue; host or cells: uterus of non-adult, estradiol-treated rabbits; high-speed supernatant of the homogenate
T2 sequence (P06186 1-930): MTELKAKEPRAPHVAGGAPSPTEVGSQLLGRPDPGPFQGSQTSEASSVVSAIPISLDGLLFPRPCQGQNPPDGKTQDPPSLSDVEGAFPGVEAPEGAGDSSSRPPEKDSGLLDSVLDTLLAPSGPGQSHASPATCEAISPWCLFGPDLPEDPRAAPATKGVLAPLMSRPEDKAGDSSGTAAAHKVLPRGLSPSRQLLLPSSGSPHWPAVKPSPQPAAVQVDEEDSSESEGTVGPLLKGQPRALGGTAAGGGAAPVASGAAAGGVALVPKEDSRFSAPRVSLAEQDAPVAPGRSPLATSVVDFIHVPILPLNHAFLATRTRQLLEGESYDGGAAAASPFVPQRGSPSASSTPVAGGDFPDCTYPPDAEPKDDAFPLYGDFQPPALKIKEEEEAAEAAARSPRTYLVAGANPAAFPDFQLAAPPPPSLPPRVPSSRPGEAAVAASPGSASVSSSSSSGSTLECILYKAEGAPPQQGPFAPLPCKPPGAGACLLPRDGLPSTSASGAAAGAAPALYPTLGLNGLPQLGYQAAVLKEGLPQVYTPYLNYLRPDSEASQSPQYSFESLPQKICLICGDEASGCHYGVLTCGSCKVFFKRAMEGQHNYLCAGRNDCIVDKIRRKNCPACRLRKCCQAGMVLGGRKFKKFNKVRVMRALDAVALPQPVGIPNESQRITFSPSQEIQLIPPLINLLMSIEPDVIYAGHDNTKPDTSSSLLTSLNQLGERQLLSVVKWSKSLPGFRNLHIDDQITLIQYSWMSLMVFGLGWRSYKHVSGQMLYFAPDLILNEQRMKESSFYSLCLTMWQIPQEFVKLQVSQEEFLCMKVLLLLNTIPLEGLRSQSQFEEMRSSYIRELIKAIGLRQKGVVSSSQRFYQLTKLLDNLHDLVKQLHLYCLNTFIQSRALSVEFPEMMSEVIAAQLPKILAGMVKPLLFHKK
Procedure: as §1
Non-adult rabbits of about 1 kg are given a cutaneous application of 25 μg of estradiol and 5 days after this treatment, the animals were sacrificed. The uteruses were removed, weighed and homogenized at 0° C. with the aid of a Potter polytertrafluoroethylene dish in a buffered TS solution ([…], HCl pH 7.4) (1 g of tissue per 50 ml of TS). The homogenate was then ultracentrifuged (105,000 g×90 mm) at 0° C. Aliquots of the supernatent fluid thus obtained were incubated at 0° C. for a period (t) with a constant concentration (T) of tritiated Product R (17, 21-dimethyl-19-nor-Δ^-4,9 -pregnadien-3,20-dione) in the presence of increasing concentrations (0-2500. 10^-9 M) either of R cold, or of progesterone cold, or of the product to be tested cold. The concentration of tritiated R bound (B) was then measured in each incubate by the technique of adsorbtion on dextran charcoal.
as §2, §3, §4, §5

[4] = 37° C., 3 hours + 1 hour tritiated uridine

SMILES | affinity for the glucocorticoid receptor (in words) [2] | relative bonding affinity (ARL), Glucocorticoid ([2]; time of incubation at 0°: 4H) | relative bonding affinity (ARL), Glucocorticoid ([2]; time of incubation at 0°: 24H) | affinity for the progestogen receptor (in words) [3] | relative bonding affinity (ARL), Progestogen ([3]; time of incubation at 0°: 2H) | relative bonding affinity (ARL), Progestogen ([3]; time of incubation at 0°: 24H) | incorporation of tritiated uridine (in words) ([1]; effect of glucocorticoid alone) | abortion (state of gestation) (gestation in the rat) | opposition to the dexamethasone-caused diminution of incorporation of tritiated uridine (in words) [1] | inhibition at 1 µM [1, 4] [%] | inhibition at 0.1 µM [1, 4] [%] | inhibition at 0.01 µM [1, 4] [%] | inhibition at 1 µM ([1]; symbol explained in footnote) [%]
C[C@@H]1C[C@H]2[C@@H]3CCC4=CC(=O)C=C[C@]4(C)[C@@]3(F)[C@@H](O)C[C@]2(C)[C@@]1(O)C(=O)CO [dexamethasone, reference compound] | – | – | – | – | – | – | cause a diminution of the incorporation of tritiated uridine | – | – | – | – | – | –
C#Cc1ccc([C@H]2C[C@@]3(C)[C@@H](CC[C@@]3(O)C#CC)[C@@H]3CCC4=CC(=O)CCC4=C32)cc1 [Example 3, 11β-(4-ethynylphenyl)-17α-(1-propynyl)-Δ^4,9-estradien-17β-ol-3-one] | very marked affinity | 107 | 124 | very marked affinity | 44 | 167 | – | complete abortion in all the animals | – | – | – | – | –
C#Cc1ccc([C@H]2C[C@@]3(C)[C@@H](CC[C@@]3(O)C#CCl)[C@@H]3CCC4=CC(=O)CC[C@]45O[C@]235)cc1 [Example 8, 17α-chloroethynyl-9α,10α-epoxy-11β-(4-ethynylphenyl)-17-Δ^4-estraen-17β-ol-3-one] | very marked affinity | 175 | 233 | very marked affinity | 38 | 285 | – | complete abortion in all the animals | oppose this effect | 77 | 37 | 7 | –

The next lines start with results.

affinity for the glucocorticoid receptor (in words) [2] | relative bonding affinity (ARL), Glucocorticoid ([2]; time of incubation at 0°: 4H) | relative bonding affinity (ARL), Glucocorticoid ([2]; time of incubation at 0°: 24H) | affinity for the progestogen receptor (in words) [3] | relative bonding affinity (ARL), Progestogen ([3]; time of incubation at 0°: 2H) | relative bonding affinity (ARL), Progestogen ([3]; time of incubation at 0°: 24H) | SMILES | incorporation of tritiated uridine (in words) ([1]; effect of glucocorticoid alone) | abortion (state of gestation) (gestation in the rat) | opposition to the dexamethasone-caused diminution of incorporation of tritiated uridine (in words) [1] | inhibition at 1 µM [1, 4] [%] | inhibition at 0.1 µM [1, 4] [%] | inhibition at 0.01 µM [1, 4] [%] | inhibition at 1 µM ([1]; symbol explained in footnote) [%]
very marked affinity | 65 | 57 | very marked affinity | 41 | 124 | C#Cc1ccc([C@H]2C[C@@]3(C)[C@@H](CC[C@@]3(O)CC=C)[C@@H]3CCC4=CC(=O)CCC4=C32)cc1 [Example 4, 11β-(4-ethynylphenyl)-17α-allyl-Δ^4,9-estradien-17β-ol-3-one] | – | complete abortion in all the animals | oppose this effect | 99 | 71 | 46 | –
very marked affinity | 84 | 153 | very marked affinity | 51 | 325 | C#Cc1ccc([C@H]2C[C@@]3(C)[C@@H](CC[C@@]3(O)C#CCl)[C@@H]3CCC4=CC(=O)CCC4=C32)cc1 [Example 5, 17α-(chloroethynyl)-11β-(4-ethynylphenyl)-Δ^4,9-estradien-17β-ol-3-one] | – | complete abortion in all the animals | oppose this effect | – | 84 | 47 | 100
